Laboratory results as given in ChEMBL document CHEMBL1148675, “Protein microarrays to study carbohydrate-recognition events” (Bioorg Med Chem Lett, 2006).
The source made the active and inactive calls. No cut-off for these calls is given here.

Legend:
[1] = organism: Homo sapiens; experiment: Binding affinity to myokinase by microarray at 0.5 uM
[2] = test system: Canavalia; experiment: Binding affinity to Concanavalin A by microarray at 0.5 uM
[3] = organism: Homo sapiens; experiment: Binding affinity to RNase A by microarray at 0.5 uM
[4] = test system: Aleuria aurantia; experiment: Binding affinity to Aleuria Aurantia lectin by microarray at 0.5 uM
[5] = organism: Homo sapiens; experiment: Binding affinity to alkaline phosphatase by microarray at 0.5 uM
[6] = molecular target: T1, Ovalbumin (Gallus gallus) (UniProt P01012); experiment: Binding affinity to ovalbumin by microarray at 0.5 uM
T1 sequence (whole entry): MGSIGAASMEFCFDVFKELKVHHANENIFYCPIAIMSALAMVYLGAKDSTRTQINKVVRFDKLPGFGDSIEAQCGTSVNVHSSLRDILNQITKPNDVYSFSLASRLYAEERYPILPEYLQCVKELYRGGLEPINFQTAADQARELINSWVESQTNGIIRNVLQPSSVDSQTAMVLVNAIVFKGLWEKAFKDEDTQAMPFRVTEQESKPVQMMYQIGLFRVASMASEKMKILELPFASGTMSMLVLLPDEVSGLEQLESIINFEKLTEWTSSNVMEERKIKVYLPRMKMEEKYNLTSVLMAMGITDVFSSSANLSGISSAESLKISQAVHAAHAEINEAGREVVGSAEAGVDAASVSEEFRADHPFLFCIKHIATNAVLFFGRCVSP

[7] = organism: Homo sapiens; experiment: Binding affinity to amylase by microarray at 0.5 uM
[8] = molecular target: Insulin (Homo sapiens) (UniProt P01308); experiment: Binding affinity to insulin by microarray at 0.5 uM
Sequence of Insulin (Homo sapiens) (P01308 whole entry): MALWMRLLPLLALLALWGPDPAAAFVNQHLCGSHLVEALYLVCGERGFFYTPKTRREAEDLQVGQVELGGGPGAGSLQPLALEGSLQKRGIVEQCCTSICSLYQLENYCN

[9] = test system: Triticum aestivum; experiment: Binding affinity to wheat germ agglutinin by microarray at 0.5 uM
[10] = molecular target: Antithrombin-III (Homo sapiens) (UniProt P01008); experiment: Binding affinity to antithrombin by microarray at 0.5 uM
Sequence of Antithrombin-III (Homo sapiens) (P01008 whole entry): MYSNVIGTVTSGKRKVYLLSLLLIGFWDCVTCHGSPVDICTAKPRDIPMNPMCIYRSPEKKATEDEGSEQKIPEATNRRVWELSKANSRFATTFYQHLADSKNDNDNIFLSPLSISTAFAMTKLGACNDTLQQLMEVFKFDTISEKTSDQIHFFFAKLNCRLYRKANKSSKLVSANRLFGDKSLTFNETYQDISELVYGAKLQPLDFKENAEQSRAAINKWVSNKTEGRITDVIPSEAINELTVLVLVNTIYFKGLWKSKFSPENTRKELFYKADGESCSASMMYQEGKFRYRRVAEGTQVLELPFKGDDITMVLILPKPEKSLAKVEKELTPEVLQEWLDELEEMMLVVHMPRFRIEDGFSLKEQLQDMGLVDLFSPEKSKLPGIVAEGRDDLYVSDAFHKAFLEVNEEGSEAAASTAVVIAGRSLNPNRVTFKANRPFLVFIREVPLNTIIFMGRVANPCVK

[11] = organism: Homo sapiens; experiment: Binding affinity to collagenase by microarray at 0.5 uM
[12] = test system: Sambucus nigra; experiment: Binding affinity to Sambucus nigra A lectin by microarray at 0.5 uM
[13] = molecular target: Streptavidin (Streptomyces avidinii) (UniProt P22629); experiment: Binding affinity to streptavidin by microarray
Sequence of Streptavidin (Streptomyces avidinii) (P22629 whole entry): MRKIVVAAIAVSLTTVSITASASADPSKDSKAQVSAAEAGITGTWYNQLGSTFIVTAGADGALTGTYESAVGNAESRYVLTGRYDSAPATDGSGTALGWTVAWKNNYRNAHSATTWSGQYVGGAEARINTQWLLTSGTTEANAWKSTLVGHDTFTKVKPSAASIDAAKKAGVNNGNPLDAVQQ

[14] = molecular target: Prothrombin (Homo sapiens) (UniProt P00734); experiment: Binding affinity to thrombin by microarray at 0.5 uM
[15] = organism: Homo sapiens; experiment: Binding affinity to pepsin by microarray at 0.5 uM
[16] = organism: Homo sapiens; experiment: Binding affinity to hyaluronidase by microarray at 0.5 uM
[17] = organism: Homo sapiens; experiment: Binding affinity to GST by microarray at 0.5 uM
[18] = molecular target: Trypsin (Homo sapiens) (UniProt P07477+P07478+P35030); experiment: Binding affinity to trypsin by microarray at 0.5 uM; format: protein assay
[19] = test system: Ricinus communis; experiment: Binding affinity to Ricinus communis agglutinin 120 by microarray at 0.5 uM
[20] = Inhibition of trivalent GlcNAc binding to wheat germ agglutinin without irradiation by microarray; design: species or system Triticum aestivum
[21] = Inhibition of trivalent GlcNAc binding to wheat germ agglutinin with irradiation by microarray; design: species or system Triticum aestivum

With `C[C@H]1O[C@H](OCCNC(=O)CCC(=O)NCCCC[C@H](NC(=O)CCC(=O)NCCO[C@H]2O[C@H](C)[C@H](O)[C@H](O)[C@H]2O)C(=O)N[C@@H](CCCCNC(=O)[C@H](COCc2ccc(C(=O)c3ccccc3)cc2)NC(=O)CCC(=O)NCCO[C@H]2O[C@H](C)[C@H](O)[C@H](O)[C@H]2O)C(=O)NCCCOCCOCCOCCCNC(=O)CCC(=O)NCCOCCOCCNC(=O)CCCCN2CCC(C)(C)/C2=C\C=C\C2=[N+](C)c3ccccc3C2(C)C)[C@H](O)[C@@H](O)[C@H]1O` the Activity [1] was “inactive”, the Activity [2] was “inactive” and the Activity [3] was “inactive”. The Activity [4] was “Active”, the Activity [5] was “inactive” and the Activity [6] was “inactive”. The Activity [7] was “inactive”, the Activity [8] was “inactive” and the Activity [9] was “inactive”. The Activity [10] was “inactive”, the Activity [11] was “inactive” and the Activity [12] was “inactive”. The Activity [13] was “inactive”, the Activity [14] was “inactive” and the Activity [15] was “inactive”. The Activity [16] was “inactive”, the Activity [17] was “inactive” and the Activity [18] was “inactive”.
With `CC(=O)N[C@H]1[C@@H](OCCNC(=O)CCC(=O)NCCCC[C@H](NC(=O)CCC(=O)NCCO[C@H]2O[C@H](CO)[C@@H](O[C@@H]3O[C@H](CO)[C@H](O)[C@H](O)[C@H]3O)[C@H](O)[C@H]2NC(C)=O)C(=O)N[C@@H](CCCCNC(=O)[C@H](COCc2ccc(C(=O)c3ccccc3)cc2)NC(=O)CCC(=O)NCCO[C@H]2O[C@H](CO)[C@@H](O[C@@H]3O[C@H](CO)[C@H](O)[C@H](O)[C@H]3O)[C@H](O)[C@H]2NC(C)=O)C(=O)NCCCOCCOCCOCCCNC(=O)CCC(=O)NCCOCCOCCNC(=O)CCCCN2CCC(C)(C)/C2=C\C=C\C2=[N+](C)c3ccccc3C2(C)C)O[C@H](CO)[C@@H](O[C@@H]2O[C@H](CO)[C@H](O)[C@H](O)[C@H]2O)[C@@H]1O` the Activity [1] was “inactive”, the Activity [2] was “inactive” and the Activity [3] was “inactive”. For the same compound, the Activity [4] was “inactive”, the Activity [5] was “inactive” and the Activity [6] was “inactive”. The Activity [7] was “inactive”, the Activity [8] was “inactive” and the Activity [9] was “Active”. For the same compound, the Activity [10] was “inactive”, the Activity [11] was “inactive” and the Activity [12] was “inactive”. For the same compound, the Activity [13] was “inactive”, the Activity [14] was “inactive” and the Activity [15] was “inactive”. For the same compound, the Activity [19] was “Active”, the Activity [16] was “inactive” and the Activity [17] was “inactive”. For the same compound, the Activity [18] was “inactive”.
For `CC(=O)N[C@H]1[C@H](OCCNC(=O)CCC(=O)NCCCC[C@H](NC(=O)CCC(=O)NCCO[C@@H]2O[C@H](CO)[C@@H](O)[C@H](O)[C@H]2NC(C)=O)C(=O)N[C@@H](CCCCNC(=O)[C@H](COCc2ccc(C(=O)c3ccccc3)cc2)NC(=O)CCC(=O)NCCO[C@@H]2O[C@H](CO)[C@@H](O)[C@H](O)[C@H]2NC(C)=O)C(=O)NCCCOCCOCCOCCCNC(=O)CCC(=O)NCCOCCOCCNC(=O)CCCCN2CCC(C)(C)/C2=C\C=C\C2=[N+](C)c3ccccc3C2(C)C)O[C@H](CO)[C@@H](O)[C@@H]1O`, the Activity [1] was “inactive”, the Activity [2] was “inactive” and the Activity [3] was “inactive”. For the same compound, the Activity [4] was “inactive”, the IC50 [20] was 7.9 mM and the Activity [5] was “inactive”. For the same compound, the Activity [6] was “inactive”, the Activity [7] was “inactive” and the IC50 [21] was 17 mM. The Activity [8] was “inactive”, the Activity [9] was “Active” and the Activity [10] was “inactive”. For the same compound, the Activity [11] was “inactive”, the Activity [12] was “inactive” and the Activity [13] was “inactive”. The Activity [14] was “inactive”, the Activity [15] was “inactive” and the Activity [16] was “inactive”. For the same compound, the Activity [17] was “inactive” and the Activity [18] was “inactive”.
